Measured values as given in PubChem BioAssay (NCI).
“And” between values parts separate entries of the source, which are not always exact repeats. Equal values may be shown once.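 Five compound concentrations were applied to cells in 96-well plates for 48 hours; endpoints were derived by simple linear interpolation of the resulting dose-response curve. At the GI50, growth is halved. TGI marks complete inhibition of growth.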

Tests used:
Experiment in all cases: NCI-60 cell line screen, 48 h
[1] = test system: HCT-15 colon
[2] = test system: SNB-19 CNS
[3] = test system: HOP-62 NSCLC
[4] = test system: LOX IMVI melanoma
[5] = test system: SK-MEL-5 melanoma
[6] = test system: U251 CNS
[7] = test system: EKVX NSCLC
[8] = test system: MOLT-4 leukemia
[9] = test system: NCI-H522 lung
[10] = test system: SNB-75 CNS
[11] = test system: SF-268 CNS
[12] = test system: HCT-116 colon
[13] = test system: SR leukemia
[14] = test system: UACC-257 melanoma
[15] = test system: BT-549 breast
[16] = test system: IGROV1 ovarian
[17] = test system: RPMI-8226 leukemia
[18] = test system: NCI-H460 lung
[19] = test system: K-562 leukemia
[20] = test system: A549 NSCLC
[21] = test system: HCC-2998 colon
[22] = test system: OVCAR-4 ovarian
[23] = test system: KM12 colon
[24] = test system: A498 renal
[25] = test system: HT29 colon
[26] = test system: OVCAR-8 ovarian
[27] = test system: RXF 393 renal
[28] = test system: OVCAR-5 ovarian
[29] = test system: SK-MEL-28 melanoma
[30] = test system: HS 578T breast
[31] = test system: M14 melanoma
[32] = test system: SN12C renal
[33] = test system: 786-0 renal
[34] = test system: CCRF-CEM leukemia
[35] = test system: DU-145 prostate
[36] = test system: NCI-H23 lung
[37] = test system: UACC-62 melanoma
[38] = test system: NCI/ADR-RES ovarian
[39] = test system: HOP-92 NSCLC
[40] = test system: MCF7 breast
[41] = test system: MDA-MB-231 breast
[42] = test system: UO-31 renal
[43] = test system: SK-OV-3 ovarian
[44] = test system: MDA-MB-435
[45] = test system: SF-539 CNS
[46] = test system: OVCAR-3 ovarian
[47] = test system: PC-3 prostate
[48] = test system: SF-295 CNS
[49] = test system: CAKI-1 renal
[50] = test system: T-47D breast
[51] = test system: ACHN renal
[52] = test system: COLO 205 colon
[53] = test system: NCI-H226 lung
[54] = test system: SW-620 colon
[55] = test system: HL-60(TB) leukemia
[56] = test system: SK-MEL-2 melanoma

For `CC[C@H](C)[C@H](NC(=O)[C@H]1CCCCN1C)C(=O)N(C)[C@H](C[C@@H](OC(C)=O)c1nc(C(=O)N[C@@H](Cc2ccccc2)C[C@H](C)C(=O)O)cs1)C(C)C`, the GI50 [1] was 1.33 nM and 1.65 nM, the TGI [1] was greater than 16500 nM and the GI50 [2] was 0.595 nM and 1.65 nM. For the same compound, the TGI [2] was greater than 16500 nM, the GI50 [3] was 0.909 nM and 1.65 nM and the TGI [3] was greater than 16500 nM. For the same compound, the GI50 [4] was 0.609 nM and 1.65 nM, the TGI [4] was greater than 16500 nM and the GI50 [5] was 0.13 nM and < 1.65 nM. For the same compound, the TGI [5] was 10.2 nM and < 1.65 nM, the GI50 [6] was 0.481 nM and 1.65 nM and the TGI [6] was greater than 16500 nM. The GI50 [7] was 0.979 nM and 1.65 nM, the TGI [7] was greater than 16500 nM and the GI50 [8] was 3.76 nM and 1.65 nM. For the same compound, the TGI [8] was greater than 16500 nM, the GI50 [9] was 0.347 nM and < 1.65 nM and the TGI [9] was 13.3 nM and < 1.65 nM. The GI50 [10] was 0.568 nM and 1.65 nM, the TGI [10] was greater than 16500 nM and the GI50 [11] was 0.834 nM and 1.65 nM. For the same compound, the TGI [11] was greater than 16500 nM, the GI50 [12] was 0.404 nM and 1.65 nM and the TGI [12] was 17 nM. The GI50 [13] was 0.305 nM and 1.65 nM, the TGI [13] was greater than 16500 nM and the GI50 [14] was greater than 16500 nM. The TGI [14] was greater than 16500 nM, the GI50 [15] was 0.676 nM and < 1.65 nM and the GI50 [16] was 6.04 nM and 1.65 nM. For the same compound, the TGI [16] was greater than 16500 nM, the GI50 [17] was 0.264 nM and 1.65 nM and the TGI [17] was 6560 nM. For the same compound, the GI50 [18] was 0.369 nM and 1.65 nM, the TGI [18] was greater than 16500 nM and the GI50 [19] was 0.327 nM and 1.65 nM. The TGI [19] was greater than 16500 nM, the GI50 [20] was 1.53 nM and 1.65 nM and the TGI [20] was greater than 16500 nM. For the same compound, the GI50 [21] was 1.3 nM and 1.65 nM, the TGI [21] was greater than 16500 nM and the TGI [22] was greater than 16500 nM. The GI50 [23] was 0.269 nM and 1.65 nM, the GI50 [24] was 0.548 nM and < 1.65 nM and the TGI [24] was less than 1.65 nM. For the same compound, the GI50 [25] was 0.356 nM and 1.65 nM, the TGI [25] was 2 nM and the GI50 [26] was 2.97 nM and 1.65 nM. For the same compound, the TGI [26] was greater than 16500 nM, the GI50 [27] was 1.65 nM and the TGI [27] was greater than 16500 nM. For the same compound, the GI50 [28] was 3.24 nM and 1.65 nM, the TGI [28] was greater than 16500 nM and the GI50 [29] was 8630 nM. For the same compound, the TGI [29] was greater than 16500 nM, the GI50 [30] was 1.01 nM and 1.65 nM and the TGI [30] was greater than 16500 nM. For the same compound, the GI50 [31] was 0.337 nM and < 1.65 nM, the TGI [31] was less than 1.65 nM and the GI50 [32] was 3 nM and 1.65 nM. The TGI [32] was greater than 16500 nM, the GI50 [33] was 0.943 nM and 1.65 nM and the TGI [33] was greater than 16500 nM. For the same compound, the GI50 [34] was 0.392 nM and 1.65 nM, the TGI [34] was 2490 nM and the GI50 [35] was 0.475 nM and 1.65 nM. For the same compound, the TGI [35] was 36.7 nM, the GI50 [36] was 0.887 nM and 1.65 nM and the TGI [36] was greater than 16500 nM. The TGI [37] was greater than 16500 nM, the GI50 [38] was 4.73 nM and 1.65 nM and the GI50 [39] was 7240 nM. For the same compound, the TGI [39] was greater than 16500 nM, the TGI [40] was greater than 16500 nM and the GI50 [41] was 2.01 nM and 1.65 nM. The TGI [41] was greater than 16500 nM, the GI50 [42] was 7.88 nM and 1.65 nM and the TGI [42] was greater than 16500 nM. For the same compound, the GI50 [43] was 0.807 nM and 1.65 nM, the GI50 [44] was 0.0749 nM and < 1.65 nM and the TGI [44] was 0.386 nM and < 1.65 nM. For the same compound, the GI50 [45] was 0.576 nM and < 1.65 nM, the TGI [45] was 5.96 nM and < 1.65 nM and the GI50 [46] was 0.234 nM and < 1.65 nM. The TGI [46] was 11.9 nM and < 1.65 nM, the GI50 [47] was 0.339 nM and 1.65 nM and the TGI [47] was greater than 16500 nM. The GI50 [48] was 0.305 nM and < 1.65 nM, the TGI [48] was 2.82 nM and < 1.65 nM and the GI50 [49] was 1.97 nM. The GI50 [50] was greater than 16500 nM, the TGI [50] was greater than 16500 nM and the GI50 [51] was 4.81 nM and 1.65 nM. It also gave a TGI [51] greater than 16500 nM, a GI50 [52] of 0.394 nM and a TGI [52] of 2.75 nM. For the same compound, the GI50 [53] was 11.3 nM and < 1.65 nM, the TGI [53] was less than 1.65 nM and the GI50 [54] was 0.332 nM and 1.65 nM. The TGI [54] was greater than 16500 nM, the GI50 [55] was 0.394 nM and < 1.65 nM and the TGI [55] was 2.67 nM and < 1.65 nM. It also gave a GI50 [56] of 0.7 nM.
